Data on nine molecules can be found in patent US20170198354A1, “METHODS OF GLUCOCORTICOID THERAPY AND DETERMINING RESPONSIVENESS THEREOF” (YISSUM RESEARCH DEVELOPMENT COMPANY OF THE HEBREW …, priority 2014, published 2017).

Holding throughout (assay type): cell-based, human
In one data set the test system is miRNAs. The data set can be described thus: Deep sequencing of small RNAs. The following applies: CEM-C7H2, Dex 24 hrs. On the procedure: RNA of cell samples was extracted by Tri-reagent. 1 μg of each sample was sequenced on an Illumina Genome Analyzer as described by Son et al, Curr Protoc Microbiol; Chapter 1: Unit 1E 4. Data analysis was performed by a miRNAkey application Ronen et al., Bioinformatics; 26(20):2615-2616.

A further data set concerns PANK3-GRE. The data set can be described thus: Chromatin immunoprecipitation of PANK3-GRE. Conditions: CEM-C7H2. On the procedure: The EpiTech ChIP OneDay kit (Qiagen) was employed. IP antibodies used were: Rabbit-IgG (Qiagen), anti-GR (cell signaling) and anti-H3K4me1 (abcam). qRT-PCR was performed by syber green enzyme with the following primers: PANK3-GRE, GAPDH positive control and MYOD1 negative control (Qiagen). GR-GRE primers were planned as follow: Fw-5′ […] 3′ and 5′ […] 3′. % Enrichment was calculated according to the formula: 2̂(CT Mean(Input)−CT Mean of (Interested fraction))*100.

A further data set concerns miR-103. The data set is described as follows: miR-103 level in patient peripheral blood lymphoblasts after PRED (qRT-PCR). On the procedure: Blood and bone marrow (BM) samples of pediatric acute lymphoblastic leukemia (ALL) and chronic lymphoblastic leukemia (CLL) patients were collected from hospitals for testing, and the treatment and clinical status of these patients cross-checked in a blind manner. The outline of the study was to collect blood samples from ALL patients at diagnosis, incubate the blood with or without PRED overnight and then measure miR-103 expression levels. 11 BMs of ALL patients and 6 BMs of normal pediatric donors were analyzed. Furthermore, peripheral blood samples from 8 pediatric ALL patients and 1 CLL patient were collected. The CLL and 5 ALL samples were treated with PRED in vitro while from the additional 3 ALL patients blood was taken at diagnosis and at day 1 following PRED treatment.
The outline of the study was to collect blood samples from acute lymphoblastic leukemia (ALL) patients at diagnosis, incubate the blood with or without PRED overnight and then measure miR-103 expression levels. 11 BMs of ALL patients and 6 BMs of normal pediatric donors were analyzed. Furthermore, peripheral blood samples from 8 pediatric ALL patients and 1 chronic lymphoblastic leukemia (CLL) patient were collected. The CLL and 5 ALL samples were treated with PRED in vitro while from the additional 3 ALL patients blood was taken at diagnosis and at day 1 following PRED treatment. […]
(Real-time PCR tracks product formation cycle by cycle.)

Data set [1] concerns MOLT-4, CUTLL, BJAB and SUD-136 cells. The data set can be described thus: Apoptosis by PI uptake (flow cytometry), GC-resistant cell lines. The following applies: for Conferring GC sensitivity (GCIA) by miRNA transfection: BJAB and MOLT-4 transfected with miRNA overexpression plasmids; for Conferring GC sensitivity (GCIA) by miRNA transfection / miR-103-mediated GCIA after re-expression of miR-17˜92a members: Dex 72 hrs; for miR-103-mediated GCIA after re-expression of miR-17˜92a members: miR-103 overexpressing BJAB. The source says:
(§1) Cell lines models of human T-cell acute lymphocytic leukemia (T-ALL) and Burkitt's lymphoma (BL), including the glucocorticoid (GC) sensitive cells represented by CEM-C7H2 (T-ALL, the sensitive sub-clone of CCRF-CEM), LOUCY (T-ALL) and DAUDI (BL), and the GC resistant cells represented by MOLT-4 (T-ALL), CUTLL (T-ALL), BJAB (BL) and SUD-136 (BL) were used. At least three kinds of cells were used in each type of cancer in order to minimize cell type specific variables. In addition, two types of malignancies were examined, T-ALL to represent leukemia behavior and BL to represent lymphoma behavior. Bone marrow cells were collected from normal donors and ALL patients. All experiments with human cells were approved by an institutional Helsinki committee and the Ministry of Health. Dexamethasone (DEX), RU486, Propidium iodide (PI), puromycin and Tri-reagent were purchased from sigma and TransIT-LT1 from Mirus.
(§2) Cells were treated with 100 nM Dex for 72 hrs. Percent apoptotic cells was determined by PI-uptake as measured in a FACS Calibur flow cytometer (BD).

Another data set has as its system GR. The data set can be described thus: GR expression (western blot / mRNA RQ). On the procedure: (§3) Total lysate of 10^6 cells was prepared in 50 μl protein sample buffer (PSB) ×1.5. The following antibodies were used for immuno-blotting: anti-β-Catenin and anti-GR (BD Transduction Laboratories); anti-BIM (Calbichem); anti-CDK2, anti-c-Myb, anti-DVL1 and anti-c-Myc (Santa Cruz Biotechnology); anti-cycline E1 (Cell Signaling Technology); and anti-a-Tubulin (Sigma). Immune-blots images are presented by Image Lab 3.0 software. Specific bands were cropped by transferring images to Adobe Photoshop CS5.
(§4) Total RNA was isolated using miRNeasy mini kit (QIAGEN). For Syber green assay, precipitated RNA samples were treated with Poly A Tailing kit (Ambion). c-DNA was prepared by M-MLV reverse transcriptase (Invitrogen). q-PCR amplification of mRNA was operated by Platinum SYBER Green (Invitrogen) with the following primers: FKBP5 5′ […] 3′ and 5′ GTCTCCAATCATCGGCGTT 3′, SGK1 5′ […] 3′ and 5′ […] 3′. For Taqman based PCR, c-DNA was prepared by Taqman MicroRNA Reverse Transcription Kit (Applied Biosystem). q-PCR was performed using TaqMan 2× Universal PCR Master Mix (Applied Biosystem).
(In western blotting, separated proteins are transferred to a membrane and probed.)

The test system of a further data set is BIM. The data set is described as follows: BIM expression (western blot / mRNA RQ). On the procedure:
as §3, §4

Data set [2] concerns CEM-C7H2, LOUCY and DAUDI cells. The data set can be described thus: Apoptosis by PI uptake (flow cytometry), GC-sensitive cell lines. Conditions: LOUCY overexpressing miR-103, Dex-treated.
Source text: as §1, §2
(Flow cytometry measures light scatter and fluorescence of single cells or particles in a stream.)

A further data set deals with c-Myc. The data set can be described thus: c-Myc expression (western blot / RQ). The following applies: miR-103 overexpressing cells; further downregulated following Dex. On the procedure: as §3, §4
The next data set deals with c-Myb. The data set is described as follows: c-Myb expression (western blot). Conditions: CEM-C7H2 and MOLT-4 T-ALL cells. On the procedure: as §3
For a further data set, the system named is DVL1 and β-Catenin. The data set is described as follows: DVL1 and β-Catenin expression (western blot). On the procedure:
as §3

The test system of the next data set is miR-17˜92a. The data set can be described thus: miR-17~92a cluster expression (RQ / fold change). The following applies: resistant BJAB. On the procedure: RNA of cell samples was extracted by Tri-reagent. 1 μg of each sample was sequenced on an Illumina Genome Analyzer as described by Son et al, Curr Protoc Microbiol; Chapter 1: Unit 1E 4.
Total RNA was isolated using miRNeasy mini kit (QIAGEN). For Syber green assay, precipitated RNA samples were treated with Poly A Tailing kit (Ambion). c-DNA was prepared by M-MLV reverse transcriptase (Invitrogen). q-PCR amplification of mRNA was operated by Platinum SYBER Green (Invitrogen) with the following primers: FKBP5 5′ […] 3′ and 5′ […] 3′, SGK1 5′ […] 3′ and 5′ […] 3′. For Taqman based PCR, c-DNA was prepared by Taqman MicroRNA Reverse Transcription Kit (Applied Biosystem). q-PCR was performed using TaqMan 2× Universal PCR Master Mix (Applied Biosystem).

Data set [3] concerns CEM-C7H2, BJAB, SUD-136, DAUDI and MOLT-4 cells. The data set can be described thus: BRDU incorporation cellular proliferation assay. Conditions: miR-103 overexpressing cells, no Dex. From the text:
A BrdU Cell Proliferation Assay kit (Exalpha Biological, Inc) or a BrdU Flow Kit (BD Pharmingen) were used to determine cellular proliferation.

The next data set concerns BJAB cells. The data set is described as follows: Total cell number / viability by flow cytometry. Conditions: miR-103 overexpressing BJAB. On the procedure: FIGS. 6A-E: miR-103 inhibits cellular proliferation. (A) Relative Quantification of miR-103 in BM cells of […]. (B) CEM-C7H2, BJAB and miR-103 overexpressing BJAB cells were treated with Dex (24 hrs), labeled with BRDU (1 hr), fixed and analyzed by flow cytometry. (C) miR-103 overexpressing BJAB, SUD-136, DAUDI and MOLT-4 cells were treated with Dex for 72 hrs. Cellular proliferation was measured by BRDU staining. (D) miR-103 overexpressing BJAB cells were treated with Dex and/or RU486 for 72 hrs. Cell viability was determined by flow cytometry. (E) miR-103 overexpression or sponged cells were treated with Dex and then subjected to western blot analysis using anti Cyclin E1 and CDK2 antibodies. C=Untreated, D=Dex-treated.

The subject of a further data set is cycline E1 and CDK2. The data set can be described thus: Cycline E1 and CDK2 expression (western blot / RQ). The following applies: miR-103 overexpressing cells. On the procedure: as §3, §4

On to `C[C@@H]1C[C@H]2[C@@H]3CCC4=CC(=O)C=C[C@]4(C)[C@@]3(F)[C@@H](O)C[C@]2(C)[C@@]1(O)C(=O)CO` [Dex, Dexamethasone], for which, in the data set with miRNAs, the “Number of miRNAs most significantly modulated by Dex” value is 22. Also, the “PANK3-GRE enrichment, anti-GR antibody, Dex-treated compared with untreated” value in the data set on PANK3-GRE was “approximately 5%”.

Take `C[C@]12C=CC(=O)C=C1CC[C@@H]1[C@@H]2C(=O)C[C@@]2(C)[C@H]1CC[C@]2(O)C(=O)CO` [PRED, prednisone]: the “miR-103 level in peripheral malignant lymphoblasts after PRED” value in the data set with miR-103 (PRED good responders (PGR) ALL patients) is listed as “upregulated”; in the data set with miR-103 (prednisone poor response (PPR) ALL patients) it was “downregulated”.

In the case of “miR-15b: human miRNA, SEQ ID NO: 4, overexpression plasmid (UAGCAGCACAUCAUGGUUUACA; listed as Homo sapiens)”, the “Conferring GC sensitivity (GCIA) by miRNA transfection” value (shortened to “Conferring GC sensitivity (GCIA)”) in data set [1] is “sensitized”.

In the case of “miR-16: human miRNA, SEQ ID NO: 5, overexpression plasmid (UAGCAGCACGUAAAUAUUGGCG; listed as Homo sapiens)”, the “Conferring GC sensitivity (GCIA)” value in data set [1] was “sensitized”.

For “miR-18a: human miRNA of miR-17˜92a, SEQ ID NO: 19, re-expressed from plasmid (UAAGGUGCAUCUAGUGCAGAUAG; listed as Homo sapiens) [reference compound]”, the “miR-103-mediated GCIA after re-expression of miR-17˜92a members” value in data set [1] is listed as “counteracted the miR-103-mediated GCIA”. Besides, the “miR-103-mediated GR upregulation after restoring miR-18a” value in the data set with GR (miR-103 transfected cells transfected with miR-18a) was “inhibition of the GR upregulation mediated by miR-103”.

Take “miR-20a: human miRNA of miR-17˜92a, SEQ ID NO: 14, re-expressed from plasmid (UAAAGUGCUUAUAGUGCAGGUAG; listed as Homo sapiens) [reference compound]”: the “miR-103-mediated GCIA after re-expression of miR-17˜92a members” value in data set [1] is reported as “counteracted the miR-103-mediated GCIA”. Moreover, the “BIM level after restoring miR-20a” value in the data set with BIM (miR-103 overexpressing BJAB transfected with miR-20a) is recorded as “re-suppressed”.

For “miR-30d: human miRNA, SEQ ID NO: 3, overexpression plasmid (UGUAAACAUCCCCGACUGGAAG; listed as Homo sapiens)”, the “Conferring GC sensitivity (GCIA)” value in data set [1] was “sensitized”.

On to “miR-30e: human miRNA, SEQ ID NO: 2, overexpression plasmid (UGUAAACAUCCUUGACUGGAAG; listed as Homo sapiens)”, for which the “Conferring GC sensitivity (GCIA)” value in data set [1] was “sensitized”.

As to “miR-103: human miRNA, SEQ ID NO: 1 AGCAGCAUUGUACAGGGCUAUGA, expressed from overexpression plasmid (Table 3) (listed as Homo sapiens)”, in data set [2], the “GC induced apoptosis (GCIA) in miR-103 overexpressing cells” value is on record as “became hyper-sensitive to GCIA”. For the same molecule, in [1], the “Conferring GC sensitivity (GCIA)” value is “particularly effective in conferring GC sensitivity”. Also, the “Apoptosis of miR-103 overexpressing resistant cells with Dex” value in [1] (MOLT-4, CUTLL, BJAB, SUD136 overexpressing miR-103, Dex-treated) is listed as “underwent significant apoptosis”. Moreover, the “Apoptosis on miR-103 overexpression without Dex” value in [1] (untreated cells) was “only a minor effect on apoptosis”. For the same molecule, in the data set on c-Myc, the “c-Myc expression on miR-103 overexpression” value was “reduced”. Further, the “GR protein and mRNA on miR-103 overexpression” value in the data set with GR (miR-103 overexpressing cells) is “both GR protein and mRNA upregulation”. In addition, in the data set with BIM (protein and mRNA, augmented by Dex), the “BIM expression on miR-103 overexpression” value is “induced BIM upregulation both at the protein and mRNA levels”. Besides, in the data set on c-Myb, the “c-Myb expression on miR-103 overexpression” value is reported as “downregulates”. Also, in the data set with DVL1 and β-Catenin (Burkitt's lymphoma cells), the “DVL1 and β-Catenin on miR-103 overexpression” value is given as “downregulated”. In the data set on DVL1 and β-Catenin (CEM-C7H2), the “DVL1 expression on miR-103 overexpression” value was “even upregulated” and the “β-Catenin level on miR-103 overexpression” value is recorded as “unaffected”. The “β-Catenin level on miR-103 overexpression” value in the data set on DVL1 and β-Catenin (MOLT4) is on record as “even upregulated”. In the data set on miR-17˜92a, the “miR-17˜92a expression on miR-103 overexpression” value was “reduced expression”. Further, the “Cell proliferation (BRDU) by miR-103 itself” value in [3] was “significantly reduced cell proliferation”. In the data set on BJAB cells, the “Total cell number in the culture” value is reported as “reduced the total cell number”. Further, the “Cycline E1 and CDK2 expression on miR-103 overexpression” value with cycline E1 and CDK2 is listed as “downregulated”.
